Experimental data: US20220040304A1, “A COMPOSITION FOR CANCER CELL DEATH AND ITS USE” (Industry-University Cooperation Foundation Hanyang …, priority 2018, published 2022)

Key:
singlet oxygen = assay: ROS generation: singlet oxygen measured by decrease of ADPA fluorescence; type: biochemical
Experimental: A ROS-generating effect of the RLuc8-MS protein was confirmed using 100 μL of buffer (50 mM HEPES-KOH, 24° C., pH 7.4) containing RLuc8-MS protein (final concentration: 10 μM), anthracene-9,10-dipropionic acid (ADPA, Abcam., UK; final concentration: 50 μM) whose fluorescence intensity decreases in the presence of singlet oxygen, flavin mononucleotide (FMN) (final concentration: 150 μM) and a Co-h substrate solution. The rate of decrease in fluorescence intensity was measured at the excitation wavelength of 380 nm and the emission wavelength of 430 nm of ADPA using a plate reader.
a ROS-generating effect of the RLuc8-MS protein was measured using RLuc8-MS (final concentration: 10 μM) and ADPA (final concentration: 50 μM) whose fluorescence intensity decreases in the presence of singlet oxygen.
Here, the active oxygen generation rate of each protein was measured using 100 μL of buffer (50 mM HEPES-KOH, 24° C., pH 7.4) containing FMN (final concentration: 150 μM) and a Co-h substrate solution (final concentration: 150 μM).
The rate of decrease in fluorescence intensity was measured at the excitation wavelength of 370 nm and the emission wavelength of 420 nm of DHE using a plate reader. In addition, the rate of decrease in fluorescence intensity was measured at the excitation wavelength of 380 nm and the emission wavelength of 430 nm of ADPA using a plate reader.
A ROS generation rate was measured using 100 μL of buffer (50 mM HEPES-KOH, 24° C., pH 7.4) containing the KR protein, RLuc8.6-KR protein (final concentration: 10 μM) and ADPA (final concentration: 50 μM) whose fluorescence intensity decreases in the presence of singlet oxygen.
A ROS generation rate was measured using 100 μL of buffer (50 mM HEPES-KOH, 24° C., pH 7.4) containing MS, RLuc8-MS (final concentration: 10 μM), ADPA (final concentration: 50 μM) whose fluorescence intensity decreases in the presence of singlet oxygen and FMN (final concentration: 150 μM).
After irradiation with light at 10 mW/cm^2 for 30 minutes, the rate of decrease in fluorescence intensity was measured at the excitation wavelength of 380 nm and the emission wavelength of 430 nm of ADPA using a plate reader.
A ROS generation rate was measured using 100 μL of buffer (50 mM HEPES-KOH, 24° C., pH 7.4) containing the KR protein, RLuc8.6-KR protein (final concentration: 10 μM) and ADPA (final concentration: 50 μM) whose fluorescence intensity decreases in the presence of singlet oxygen and a Co-h substrate solution (final concentration: 150 μM).
A ROS generation rate was measured using 100 μL of buffer (50 mM HEPES-KOH, 24° C., pH 7.4) containing MS, RLuc8-MS (final concentration: 10 μM), ADPA (final concentration: 50 μM) whose fluorescence intensity decreases in the presence of singlet oxygen, FMN (final concentration: 150 μM) and a Co-h substrate solution (final concentration: 150 μM).
The rate of decreasing fluorescence intensity was measured at the excitation wavelength of 380 nm and the emission wavelength of 430 nm of ADPA using a plate reader. […]

[1] = Bioluminescence assay of purified proteins with Co-h substrate (BRET); type: physicochemical; settings: protein 1 μM, Co-h 50 μM, 1×PBS
Experimental: In addition, 100 μL of buffer (1×PBS) containing the protein purified in Example 1 (final concentration: 1 μM) was dispensed into a 96-well plate (SPL Cell Culture Plate, 96 well (SPL, Cat #30196)), and bioluminescence assay was then performed using 50 μL of buffer (1×PBS) containing a Co-h substrate solution (final concentration: 50 μM), which is a wild-type 2-deoxy derivative. Bioluminescence intensity was immediately measured at a wavelength of 300 to 800 nm using a Thermo Scientific™ Varioskan™ Flash Multimode Reader.

MCF-7 cells = assay: MTT colorimetric change and cell viability after reaction with Co-h substrate; type: cell-based, human; settings: MCF-7, protein 10 μM 24 hours, Co-h 150 μM, without light irradiation
Experimental: MCF-7 cells were seeded at 5×10^5 cells/mL in a 96-well plate (SPL Cell Culture Plate, 96 well (SPL, Cat #30096)), and cultured at 37° C. for 24 hours (overnight).
After the culture for 24 hours, the cells were washed with FBS & Phenol red-free media (RPMI), and 100 μL of an FBS-free medium containing the purified protein (final concentration: 10 μM) was added, followed by reaction at 37° C. for 24 hours.
After the reaction for 24 hours, the cells were washed with FBS & Phenol red-free media (RPMI), and then 100 μL of FBS & Phenol red-free media (RPMI) containing a Co-h substrate solution (final concentration: 150 μM) was added. The cells were washed with FBS & Phenol red-free media (RPMI), and 100 μL of fresh FBS & Phenol red-free media (RPMI) were then added.
10 μL of 3-(4,5-dimethylthiazol-2-yl)-2,5-diphenyltetrazolium bromide (MTT) (final concentration: 1×) was added, followed by reaction at 37° C. for 4 hours. After 100 μL of a supernatant was removed, 100 μL of DMSO was added, followed by reaction for 10 minutes. The colorimetric change of MTT according to a protein type treated to the cells and the light irradiation time was checked, and then cell viability was confirmed by measuring the absorbance intensity at 570 nm using a plate reader. […]

With “MS: first protein MiniSOG, ROS-generating protein (singlet oxygen), expressed from pRSET-MiniSOG, 13 kDa [reference compound]” the “singlet oxygen generation rate after light irradiation” value (singlet oxygen; 10 mW/cm^2, 30 minutes, no substrate, protein 10 μM, ADPA) was “higher singlet oxygen generation rate”, the “singlet oxygen generation rate by Co-h reaction after ROS scavenger treatment” value (singlet oxygen; RLuc8-MS 10 μM, Co-h 150 μM 30 minutes, SOD 800 U/ml, sodium azide 100 mM or D-mannitol 100 mM) was “lowest when sodium azide was treated” and the “emission in bioluminescence assay (BRET)” value [1] was 500 nm. For the same substance, the “cell viability / colorimetric change of MTT with reaction time with Co-h” value (MCF-7 cells) was “the staining becomes pink”.

For “RLuc8-MS: fusion protein of RLuc8 and MiniSOG without lead peptide, 53 kDa”, the “singlet oxygen generation rate after Co-h substrate reaction” value (singlet oxygen; Co-h 150 μM, 30-min reaction, without light irradiation, protein 10 μM, ADPA) was “highest singlet oxygen generation rate”, the “Co-h concentration until which the singlet oxygen generation rate increased, then constantly maintained” value (singlet oxygen; protein 10 μM, ADPA 50 μM, FMN 150 μM, substrate reaction time 5 minutes) was 150 µM and the “reaction time with Co-h until which the singlet oxygen generation rate increased, then constantly maintained” value (singlet oxygen; protein 10 μM, Co-h 150 μM, ADPA) was 20 min. The “cell viability / colorimetric change of MTT with reaction time with Co-h” value (MCF-7 cells) was “the staining becomes pink”.
